Our source for the IC50 values is ChEMBL document CHEMBL1833872, “Improved synthesis and biological evaluation of chelator-modified α-MSH analogs prepared by copper-free click chemistry” (Bioorg Med Chem Lett, 2011).

In general, pIC50 refers to −log10 of the IC50, conventionally taken in molar units.

The target in this experiment is Melanocyte-stimulating hormone receptor (Mus musculus, UniProt Q01727). Nature of the experiment: Displacement of [125I]-[Nle4-D-Phe7]-alpha-MSH from MC1R in mouse B16-F10 cells after 1.5 hrs by gamma counting. Type of experiment: cell-based. A general note: In a radioligand displacement assay an active substance lowers the binding of a labelled ligand.

pIC50: −log10 of the molar value.

Chain of Melanocyte-stimulating hormone receptor (Q01727 whole entry): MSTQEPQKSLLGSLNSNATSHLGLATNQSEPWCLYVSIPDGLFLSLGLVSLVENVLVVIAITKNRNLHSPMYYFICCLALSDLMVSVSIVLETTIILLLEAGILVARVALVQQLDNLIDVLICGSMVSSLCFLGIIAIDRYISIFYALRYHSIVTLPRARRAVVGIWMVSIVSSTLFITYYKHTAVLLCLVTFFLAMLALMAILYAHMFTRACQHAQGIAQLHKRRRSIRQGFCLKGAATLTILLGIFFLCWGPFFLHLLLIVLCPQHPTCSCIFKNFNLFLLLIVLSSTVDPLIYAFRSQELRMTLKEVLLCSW

`CCCC[C@H](NC(=O)[C@H](CO)NC(=O)[C@H](Cc1ccc(O)cc1)NC(=O)[C@H](CO)NCCCCCCN=[N+]=[N-])C(=O)N[C@@H](CCC(=O)O)C(=O)N[C@@H](Cc1cnc[nH]1)C(=O)N[C@H](Cc1ccccc1)C(=O)N[C@@H](CCCN=C(N)N)C(=O)N[C@@H](Cc1c[nH]c2ccccc12)C(=O)NCC(=O)N[C@@H](CCCCN)C(=O)N1CCC[C@H]1C(=O)N[C@H](C(N)=O)C(C)C`: the pIC50 is 9.60.
